The values below come from PMC9169622 (Proceedings of the National Academy of Sciences of the …, 2022).

Test [1] concerns SRC. Nature of the test: Western blot of p-SRC Y416, p-AKT S473, p-ERK T202/Y204. It counts as cell-based, human. The following applies: 10 nM.
In test [2] the target is T1, GPR126 (Homo sapiens, UniProt Q86SQ4).
T1 sequence (Q86SQ4 38-1221): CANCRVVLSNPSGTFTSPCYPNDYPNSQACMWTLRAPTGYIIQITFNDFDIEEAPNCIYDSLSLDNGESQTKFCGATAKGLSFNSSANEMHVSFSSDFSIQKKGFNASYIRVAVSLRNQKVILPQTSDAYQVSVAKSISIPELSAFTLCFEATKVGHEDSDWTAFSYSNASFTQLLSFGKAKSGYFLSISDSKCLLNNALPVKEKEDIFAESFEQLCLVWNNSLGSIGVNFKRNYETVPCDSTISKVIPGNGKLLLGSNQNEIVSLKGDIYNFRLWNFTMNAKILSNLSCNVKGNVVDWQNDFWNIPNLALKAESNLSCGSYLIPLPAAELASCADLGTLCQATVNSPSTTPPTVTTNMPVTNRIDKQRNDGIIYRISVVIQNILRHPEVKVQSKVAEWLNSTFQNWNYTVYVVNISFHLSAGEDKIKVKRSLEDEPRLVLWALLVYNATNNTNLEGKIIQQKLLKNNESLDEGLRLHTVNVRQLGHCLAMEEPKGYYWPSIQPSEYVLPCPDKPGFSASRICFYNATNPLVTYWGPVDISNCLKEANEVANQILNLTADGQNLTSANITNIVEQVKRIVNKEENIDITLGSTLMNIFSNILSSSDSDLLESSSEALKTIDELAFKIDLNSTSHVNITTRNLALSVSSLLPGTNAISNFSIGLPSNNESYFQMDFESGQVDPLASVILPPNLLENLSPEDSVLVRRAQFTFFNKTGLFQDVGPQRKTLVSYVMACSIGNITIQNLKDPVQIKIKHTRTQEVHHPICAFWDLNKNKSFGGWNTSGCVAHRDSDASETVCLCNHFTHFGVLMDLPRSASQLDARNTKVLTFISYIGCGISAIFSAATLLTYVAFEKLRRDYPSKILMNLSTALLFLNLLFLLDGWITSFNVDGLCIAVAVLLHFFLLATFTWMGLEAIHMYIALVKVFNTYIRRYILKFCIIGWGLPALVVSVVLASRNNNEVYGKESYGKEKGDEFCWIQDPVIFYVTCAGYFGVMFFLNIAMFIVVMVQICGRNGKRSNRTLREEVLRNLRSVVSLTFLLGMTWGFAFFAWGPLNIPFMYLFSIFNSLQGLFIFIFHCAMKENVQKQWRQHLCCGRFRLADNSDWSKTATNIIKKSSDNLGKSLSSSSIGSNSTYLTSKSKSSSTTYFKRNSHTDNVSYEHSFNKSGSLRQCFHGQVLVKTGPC
The following applies: angiotensin II and AT1R as controls.

For test [3], the target named is T1, GPR126. The following applies: angiotensin II and AT1R as controls. This is another data set of the same source.
Test [4] deals with T1, GPR126. In words: cell-based. Type of test: cell-based.
The target of test [5] is T2, full-length GPR126 (Homo sapiens, UniProt Q86SQ4).
T2 sequence (Q86SQ4 38-1221): T1 sequence (Q86SQ4 38-1221)
Nature of the test: cell-based. It counts as cell-based.

The subject of test [6] is full-length GPR126. Nature of the test: cell-based. Type of test: cell-based, human.
The target of test [7] is T3, full-length GPR126 (Homo sapiens, UniProt Q86SQ4, R1057Q).
T3 sequence (Q86SQ4 38-1221 R1057Q): T1 sequence (Q86SQ4 38-1221) with R1020Q
Nature of the test: cell-based. It counts as cell-based.

Test [8] addresses T1, GPR126. It counts as cell-based.
Test [9] concerns GPR126. Type of test: cell-based, human.

Where a chain is given by its changes, count along the chain named. Values joined by “and” are separate entries in the source; they are usually repeats but may differ in a detail not shown here. Equal entries are not always repeated.

For orientation: EC50 means the concentration needed to bring the measured effect to its halfway point. As for `CC(=O)[C@H]1CC[C@H]2[C@@H]3CCC4=CC(=O)CC[C@]4(C)[C@H]3CC[C@]12C` [progesterone], in [1] (5 min), the “p-SRC Y416 level, F1085A or W1081A overexpressed in GPR126-silenced cells” value is “failed to increase” and the “pY416 SRC phosphorylation, GPR126 wild-type or L937A overexpressed in GPR126-silenced cells” value is listed as “able to promote”. In addition, in test [1] (MDA-MB-231 cells), the “time of maximum phosphorylation after treatment” value was 5 min. For the same compound, the “phosphorylation of SRC at Y416, p-AKT S473 and p-ERK T202/Y204” value in test [1] (MDA-MB-231 cells, time-dependent) is “promoted”. Besides, in [2], the “Gq activity of GPR126” value is “no obvious”. Further, the “β-arrestin-2 recruitment of GPR126” value in [3] is listed as “no obvious”. For the same compound, the “Gs coupling of GPR126” value in test [4] was “not detectable”. For the same compound, in test [5], the “able to inhibit Fsk-induced cAMP accumulation” value is “able to inhibit”. The EC50 in test [5] (EC50, cAMP inhibition, full-length GPR126) is 540 nM and ~540 nM. Moreover, the “GPR126 activity in cAMP inhibition assay with Ala mutants” value in test [6] is reported as “significantly impaired”. Further, in [7], the “potency in cAMP inhibition assay with GPR126 R1057Q mutant” value is recorded as “decreased the potency”. In [8], the “cAMP levels in GPR126 knocking down cells” value is recorded as “no significant effects” and the “cAMP levels induced by Fsk in GPR126-expressing cells” value is on record as “inhibited”. In test [9], the “BRET signal between Nluc-N terminus and FlAsH-labeled S1 site of ECL1” value is recorded as “increase”; the “GPR126 response with mutation of F1085” value was “impaired”; the “extracellular conformational change of GPR126 with K1001 or F1012 mutated to Ala” value was “no significant effects”. The “BRET signal between Nluc-tagged N terminus and FlAsH-labeled ECL2” value in test [9] (concentration-dependent) is recorded as “significant increase”.
